In US20110212891A1 (MSD K.K., priority 2008, published 2011) one finds IC50 data, which are given here for twelve compounds.

The target in this test is T1, Human DGAT1 (Homo sapiens, UniProt O75907).
T1 construct: made in house; host or cells: Pichia pastoris (printed 'Pichia pastris'), vector pPICZA; the membrane fraction served as enzyme source
T1 sequence (O75907 1-488): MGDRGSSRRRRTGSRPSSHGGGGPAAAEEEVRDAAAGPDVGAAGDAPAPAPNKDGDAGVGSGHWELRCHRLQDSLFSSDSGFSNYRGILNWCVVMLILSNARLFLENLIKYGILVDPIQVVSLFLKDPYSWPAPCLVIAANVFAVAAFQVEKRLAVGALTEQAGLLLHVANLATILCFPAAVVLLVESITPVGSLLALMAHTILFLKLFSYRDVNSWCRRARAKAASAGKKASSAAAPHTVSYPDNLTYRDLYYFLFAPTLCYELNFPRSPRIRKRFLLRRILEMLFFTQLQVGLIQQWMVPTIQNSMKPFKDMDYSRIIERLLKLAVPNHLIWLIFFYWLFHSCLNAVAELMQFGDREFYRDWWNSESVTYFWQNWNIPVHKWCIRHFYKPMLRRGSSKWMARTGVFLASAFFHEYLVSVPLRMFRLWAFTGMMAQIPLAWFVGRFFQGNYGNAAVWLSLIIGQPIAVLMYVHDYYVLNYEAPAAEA
The experiment in a line: DGAT1 Inhibitory Activity Test ([14C]-oleoyl-CoA, DGAT1-expressed yeast membrane fraction). To be noted: 30 minutes. The class given is biochemical. As to the method:
Human DGAT1 genes were amplified by PCR using primers described below from human cDNA library (Clontech).
The amplified human DGAT1 genes were introduced into a yeast expression vector pPICZA (Invitrogen). The resultant expression plasmid was introduced into a yeast (Pichia pastris) by electroporation to produce a recombinant yeast. The recombination yeast was cultured in the presence of 0,5% methanol for 72 hours, and the cells were crushed using glass beads in 10 mM Tris pH 7.5, 250 mM sucrose and 1 mM EDTA, followed by adjusting the membrane fraction by centrifugation to use the adjusted membrane fraction as an enzyme source.
To the reaction liquid having the following composition: 100 mM Tris pH 7.5, 100 mM MgCl2, 100 mM sucrose, 40 μM dioelin, 15 μm [^14C]-oleoyl-CoA, 0.25 μg of test substance, DGAT1-expressed yeast membrane fraction, was added, and the mixture having a volume of 100 μl was incubated at room temperature for 30 minutes. To the reaction liquid, 100 μl of 2-propanol/heptan/H2O (80:20:2) was added, the mixture was stirred well, followed by adding 200 μl of heptane and further stirring the mixture. After centrifugation, the heptane layer was collected, ethanol/0.1N NaOH/H2O (50:5:45) was added, the mixture was thus stirred, followed by recentrifuging the mixture and collecting the heptane layer. After exsiccation of the obtained heptane layer, 100 μl of Microscint 0 (PerkinElmer) was added, and the radioactivity was measured with a liquid scintillation counter. The inhibitory activity was calculated from the following formula:
Inhibition rate=100−(radioactivity in case of addition of test compound−background)/(radioactivity in case of addition of no test compound−background)×100
wherein the background means the radioactivity in case of addition of no membrane fraction.

Consider `O=C1C(NC(=O)C2(NC(=O)C3(C(F)(F)F)CC3)CC2)CCc2cc(OC(F)(F)F)ccc2N1Cc1cc(C(F)(F)F)cc(C(F)(F)F)c1` (single isomer, unassigned) [Example 41 Enantiomer A, N-[1-({[1-[3,5-bis(trifluoromethyl)benzyl]-2-oxo-7-(trifluoromethoxy)-2,3,4,5-tetrahydro-1H-1-benzazepin-3-yl]amino}carbonyl)cyclopropyl]-1-(trifluoromethyl)cyclopropane carboxyamide], for which the IC50 (Table 5, room temperature) stood at 0.137 µM.
The same measure, in the same setting: next, `CC(C)(C)OC(=O)NC1(C(=O)N[C@H]2CC(=O)c3ccccc3N(Cc3ccc(-c4ccccc4)cc3)C2=O)CC1` [Example 21]: 0.024 µM.
Same read-out and setting: next, `CC(C)(C)OC(=O)NC1(C(=O)NC2CCc3ccccc3N(Cc3ccc(OC(F)(F)F)cc3)C2=O)CCCC1` (single isomer, unassigned) [Example 47 Enantiomer A]: 0.153 µM; `CC(C)(C)OC(=O)NC1(C(=O)NC2CCc3ccccc3N(Cc3ccc(OC(F)(F)F)cc3)C2=O)CCC1` (single isomer, unassigned) [Example 46 Enantiomer A, tert-butyl{1-[({2-oxo-1-[4-(trifluoromethoxy)benzyl]-2,3,4,5-tetrahydro-1H-1-benzazepin-3-yl}amino)carbonyl]cyclobutyl}carbamate]: 0.189 µM; `CC(C)(C)OC(=O)NC1(C(=O)NC2CCc3ccccc3N(Cc3ccc(OC(F)(F)F)cc3)C2=O)CCC1` (single isomer, unassigned) [Example 46 Enantiomer B, tert-butyl{1-[({2-oxo-1-[4-(trifluoromethoxy)benzyl]-2,3,4,5-tetrahydro-1H-1-benzazepin-3-yl}amino)carbonyl]cyclobutyl}carbamate]: 0.014 µM.
Consider `O=C(NC1(C(=O)N[C@@H]2CC(=O)c3ccccc3N(Cc3cc(C(F)(F)F)cc(C(F)(F)F)c3)C2=O)CC1)c1nccs1` [Example 50, N-{1-[({(3R)-1-[3,5-bis(trifluoromethyl)benzyl]-2,5-dioxo-2,3,4,5-tetrahydro-1H-1-benzazepin-3-yl}amino)carbonyl}cyclopropyl}-1,3-thiazole-2-carboxamide], for which the IC50 (Table 6, room temperature) came out at 0.065 µM.
As to `CC(C)(C)OC(=O)NC1(C(=O)NC2CCc3ccccc3N(Cc3ccc(OC(F)(F)F)cc3)C2=O)CCCC1` (single isomer, unassigned) [Example 47 Enantiomer B], the IC50 (Table 5, room temperature) was determined as 0.021 µM.
As for `O=C(NC1(C(=O)N[C@@H]2CC(=O)c3ccccc3N(Cc3cc(C(F)(F)F)cc(C(F)(F)F)c3)C2=O)CCC1)c1ccc(F)cc1` [Example 53, N-{1-[({(3R)-1-[3,5-bis(trifluoromethyl)benzyl]-2,5-dioxo-2,3,4,5-tetrahydro-1H-1-benzazepin-3-yl}amino)carbonyl]cyclobutyl}-4-fluorobenzamide], the IC50 (Table 6, room temperature) came to 0.077 µM.
The same measure, in the same setting: next, `CC(C)(C)OC(=O)NC1(C(=O)N[C@@H]2CC(=O)c3ccccc3N(Cc3cc(C(F)(F)F)cc(C(F)(F)F)c3)C2=O)CCC1` [Example 51, tert-butyl{1-[({(3R)-1-[3,5-bis(trifluoromethyl)benzyl]-2,5-dioxo-2,3,4,5-tetrahydro-1H-1-benzazepin-3-yl}amino)carbonyl]cyclobutyl}carbamate]: 0.041 µM.
As to `O=C(NC1(C(=O)N[C@@H]2CC(=O)c3ccccc3N(Cc3cc(C(F)(F)F)cc(C(F)(F)F)c3)C2=O)CC1)c1ccc(F)c(F)n1` [Example 8], for the setting “Table 5, room temperature”, the IC50 worked out at 0.085 µM.
In the case of `O=C(NC1(C(=O)N[C@@H]2CC(=O)c3ccccc3N(Cc3cc(C(F)(F)F)cc(C(F)(F)F)c3)C2=O)CCC1)c1nccs1` [Example 52, N-{1-[({(3R)-1-[3,5-bis(trifluoromethyl)benzyl]-2,5-dioxo-2,3,4,5-tetrahydro-1H-1-benzazepin-3-yl}amino)carbonyl]cyclobutyl}-1,3-thiazole-2-carboxamide], under “Table 6, room temperature”, the IC50 was found to be 0.253 µM.
As for `O=C1C(NC(=O)C2(NC(=O)C3(C(F)(F)F)CC3)CC2)CCc2cc(OC(F)(F)F)ccc2N1Cc1cc(C(F)(F)F)cc(C(F)(F)F)c1` (single isomer, unassigned) [Example 41 Enantiomer B, N-[1-({[1-[3,5-bis(trifluoromethyl)benzyl]-2-oxo-7-(trifluoromethoxy)-2,3,4,5-tetrahydro-1H-1-benzazepin-3-yl]amino}carbonyl)cyclopropyl]-1-(trifluoromethyl)cyclopropane carboxyamide], for the setting “Table 5, room temperature”, the IC50 came to 0.858 µM.
